In ChEMBL document CHEMBL4825715, “Novel METTL3 Modulators for Treating Acute Myeloid Leukemia (AML)” (ACS Med Chem Lett, 2021):

Tests used:
[1] = target: T1, N6-adenosine-methyltransferase catalytic subunit (Homo sapiens, UniProt Q86U44); assay: Inhibition of METTL3-mediated m6A methylation in human […] cells assessed as reduction in mRNA level measured after 24 hrs by LC-MS/MS analysis; type: cell-based, MOLM-13
[2] = target: T1, N6-adenosine-methyltransferase catalytic subunit; assay: Inhibition of METTL3 (unknown origin) using 3' biotinylated RNA (UCUGGACUAAA) and 3H-SAM as a substrate preincubated for 5 mins followed by substrate addition incubated for 30 mins by scintillation counting method

T1 sequence (Q86U44 whole entry): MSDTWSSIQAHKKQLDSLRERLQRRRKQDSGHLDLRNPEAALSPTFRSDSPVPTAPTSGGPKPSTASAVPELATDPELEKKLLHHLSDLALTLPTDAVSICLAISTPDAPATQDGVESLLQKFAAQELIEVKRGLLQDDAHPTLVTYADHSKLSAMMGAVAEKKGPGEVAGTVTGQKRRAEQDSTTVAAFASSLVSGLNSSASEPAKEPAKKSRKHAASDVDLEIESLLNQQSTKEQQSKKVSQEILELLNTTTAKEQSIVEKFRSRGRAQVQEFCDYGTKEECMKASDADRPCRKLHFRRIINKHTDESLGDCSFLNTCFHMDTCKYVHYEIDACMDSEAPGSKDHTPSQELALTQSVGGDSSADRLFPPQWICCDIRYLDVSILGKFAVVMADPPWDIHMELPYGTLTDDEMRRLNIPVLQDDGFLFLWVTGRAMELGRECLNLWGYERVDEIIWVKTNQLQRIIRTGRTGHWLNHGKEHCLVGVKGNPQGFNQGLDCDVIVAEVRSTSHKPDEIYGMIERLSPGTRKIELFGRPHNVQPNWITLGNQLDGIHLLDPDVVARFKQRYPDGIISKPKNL

| SMILES | IC50 [1] [nM] | IC50 [2] [nM] |
| --- | --- | --- |
| Cc1coc(-c2cn([C@@H]3O[C@H](COc4ccc5ccc(N6CCC6)nc5c4)[C@@H](O)[C@@H]3F)c3ncnc(N)c23)n1 | < 1000 | < 10 |
| Nc1ncnc2c1c(-n1cccn1)cn2[C@@H]1O[C@H](COc2ccc3ccc(N4CCC4)nc3c2)[C@@H](O)[C@@H]1F | < 1000 | < 10 |
| Nc1ncnc2c1c([C@@H]1CCCO1)cn2[C@@H]1O[C@H](COc2ccc3ccc(N4CCC4)nc3c2)[C@@H](O)[C@@H]1F | < 1000 | < 10 |
| CNc1ccc2ccc(OC[C@H]3O[C@@H](n4cc(-c5ccn(C)n5)c5c(N)ncnc54)[C@H](O)[C@@H]3O)cc2n1 | < 1000 | < 10 |
| CCNc1ccc2ccc(OC[C@H]3O[C@@H](n4cc(C5CCCC5)c5c(N)ncnc54)[C@H](O)[C@@H]3O)cc2n1 | < 1000 | < 10 |
| CNc1ccc2ccc(OC[C@H]3O[C@@H](n4cc(-c5ccc(C)o5)c5c(N)ncnc54)[C@@H](F)[C@@H]3O)cc2n1 | < 1000 | < 10 |
